Calls of active or inactive are those of the source. No rule for the calls is given here.
Test system: CCRIS mutagenicity, Ames/micronucleus/aberration tests
Assay: CCRIS mutagenicity studies
[1] = Test System: AMES SALMONELLA TYPHIMURIUM, Strain/Indicator: TA98, Metabolic Activation: NONE, Method: STANDARD PLATE
[2] = Test System: AMES SALMONELLA TYPHIMURIUM, Strain/Indicator: TA98, Metabolic Activation: RAT, LIVER, S-9, AROCLOR 1254, Method: STANDARD PLATE
[3] = Test System: AMES SALMONELLA TYPHIMURIUM, Strain/Indicator: TA100, Metabolic Activation: NONE, Method: STANDARD PLATE
[4] = Test System: AMES SALMONELLA TYPHIMURIUM, Strain/Indicator: TA100, Metabolic Activation: RAT, LIVER, S-9, AROCLOR 1254, Method: STANDARD PLATE
[5] = Test System: AMES SALMONELLA TYPHIMURIUM, Strain/Indicator: TA1535, Metabolic Activation: NONE, Method: STANDARD PLATE
[6] = Test System: AMES SALMONELLA TYPHIMURIUM, Strain/Indicator: TA1535, Metabolic Activation: RAT, LIVER, S-9, AROCLOR 1254, Method: STANDARD PLATE
[7] = Test System: AMES SALMONELLA TYPHIMURIUM, Strain/Indicator: TA1537, Metabolic Activation: NONE, Method: STANDARD PLATE
[8] = Test System: AMES SALMONELLA TYPHIMURIUM, Strain/Indicator: TA1538, Metabolic Activation: RAT, LIVER, S-9, AROCLOR 1254, Method: STANDARD PLATE
[9] = Test System: AMES SALMONELLA TYPHIMURIUM, Strain/Indicator: TA98, Metabolic Activation: NONE, Method: PREINCUBATION
[10] = Test System: AMES SALMONELLA TYPHIMURIUM, Strain/Indicator: TA100, Metabolic Activation: NONE, Method: PREINCUBATION
[11] = Test System: AMES SALMONELLA TYPHIMURIUM, Strain/Indicator: TA1537, Metabolic Activation: RAT, LIVER, S-9, AROCLOR 1254, Method: STANDARD PLATE

Question: What does the source list for `O=C1c2c(O)ccc(O)c2C(=O)C2C(O)=CC=C(O)C12` (stereo unspecified)?
Answer: mutagenic call [1]: inactive; negative; mutagenic call [2]: inactive; negative; mutagenic call [3]: inactive; negative; mutagenic call [4]: inactive; negative; mutagenic call [5]: inactive; negative; mutagenic call [6]: inactive; negative; mutagenic call [7]: active; positive; mutagenic call [8]: inactive; negative

Question: What does the source list for `O=C/C(CCl)=C(/Cl)C(=O)O`?
Answer: mutagenic call [9]: active; positive; mutagenic call [10]: active; positive; mutagenic call (Test System: AMES SALMONELLA TYPHIMURIUM, Strain/Indicator: TA104, Metabolic Activation: NONE, Method: PREINCUBATION): active; positive

Question: How did the mutagenic call [1] turn out when `O=C1CCC(=O)N1O` was run?
Answer: The mutagenic call was “inactive; negative”.

Question: What about the mutagenic call [2] of the same compound?
Answer: The mutagenic call was “inactive; negative”.

Question: And the mutagenic call [3]?
Answer: Its mutagenic call is “inactive; negative”.

Question: And the mutagenic call [4]?
Answer: The mutagenic call was “inactive; negative”.

Question: What about the mutagenic call [5] of the same compound?
Answer: Its mutagenic call is “inactive; negative”.

Question: What about the mutagenic call [6] of the same compound?
Answer: The mutagenic call was “inactive; negative”.

Question: And the mutagenic call [7]?
Answer: Its mutagenic call is “inactive; negative”.

Question: And the mutagenic call [11]?
Answer: The mutagenic call was “inactive; negative”.

Question: For `O=[N+]([O-])c1ccc2ccc3nc4ccccc4c4ccc1c2c34`, which mutagenic call (Test System: AMES SALMONELLA TYPHIMURIUM, Strain/Indicator: TA98(1,8-DNP6), Metabolic Activation: NONE) is on record?
Answer: Its mutagenic call is “active; positive”.

Question: And the mutagenic call (Test System: AMES SALMONELLA TYPHIMURIUM, Strain/Indicator: TA98(NR), Metabolic Activation: NONE)?
Answer: Its mutagenic call is “active; positive”.

Question: And the mutagenic call (Test System: AMES SALMONELLA TYPHIMURIUM, Strain/Indicator: TA98, Metabolic Activation: NONE)?
Answer: The mutagenic call was “active; positive”.

Question: `CC(=O)Nc1ccc(Cc2ccc(NC(C)=O)cc2)cc1` was tested. Which mutagenic call [1] did it give?
Answer: Its mutagenic call is “inactive; negative”.

Question: And the mutagenic call (Test System: AMES SALMONELLA TYPHIMURIUM, Strain/Indicator: TA98, Metabolic Activation: RAT, LIVER, S-9, PCB, Method: STANDARD PLATE)?
Answer: The mutagenic call was “inactive; negative”.

Question: What about the mutagenic call [3] of the same compound?
Answer: The mutagenic call was “inactive; negative”.

Question: And the mutagenic call (Test System: AMES SALMONELLA TYPHIMURIUM, Strain/Indicator: TA100, Metabolic Activation: RAT, LIVER, S-9, PCB, Method: STANDARD PLATE)?
Answer: The mutagenic call was “inactive; negative”.

Question: Which results are given for `Cc1cc(N)c(C)c([N+](=O)[O-])c1N`?
Answer: mutagenic call [1]: inactive; negative; mutagenic call [2]: active; positive; mutagenic call [3]: inactive; negative; mutagenic call [4]: inactive; negative; mutagenic call [5]: inactive; negative; mutagenic call [6]: inactive; negative; mutagenic call [7]: inactive; negative; mutagenic call [11]: inactive; negative; mutagenic call (Test System: AMES SALMONELLA TYPHIMURIUM, Strain/Indicator: TA1538, Metabolic Activation: NONE, Method: STANDARD PLATE): inactive; negative; mutagenic call [8]: active; positive

Question: Which results are given for `CC(C)Cl`?
Answer: mutagenic call (End Point: In vitro micronucleus, Test System: Chinese Hamster Ovary (CHO-WBL) cells, Metabolic Activation: None): inactive; negative; mutagenic call (Test System: AMES SALMONELLA TYPHIMURIUM, Strain/Indicator: TA100, Metabolic Activation: NONE, Method: DESICCATOR): active; positive; mutagenic call (Test System: AMES SALMONELLA TYPHIMURIUM, Strain/Indicator: TA100, Metabolic Activation: RAT, LIVER, S-9, AROCLOR 1254, Method: DESICCATOR): active; positive

Question: Which results are given for `CSCCl`?
Answer: mutagenic call (Test System: AMES SALMONELLA TYPHIMURIUM, Strain/Indicator: TA98, Metabolic Activation: NONE, Method: SPOT TEST): inactive; negative; mutagenic call (Test System: AMES SALMONELLA TYPHIMURIUM, Strain/Indicator: TA98, Metabolic Activation: RAT, LIVER, S-9, AROCLOR 1254, Method: SPOT TEST): inactive; negative; mutagenic call (Test System: AMES SALMONELLA TYPHIMURIUM, Strain/Indicator: TA100, Metabolic Activation: NONE, Method: SPOT TEST): active; positive; mutagenic call (Test System: AMES SALMONELLA TYPHIMURIUM, Strain/Indicator: TA100, Metabolic Activation: RAT, LIVER, S-9, AROCLOR 1254, Method: SPOT TEST): active; positive; mutagenic call (Test System: AMES SALMONELLA TYPHIMURIUM, Strain/Indicator: TA102, Metabolic Activation: RAT, LIVER, S-9, AROCLOR 1254, Method: SPOT TEST): active; positive

Question: How did the mutagenic call (Test System: AMES SALMONELLA TYPHIMURIUM, Strain/Indicator: TA100, Metabolic Activation: S-9, Method: STANDARD PLATE) turn out when `Nc1cccc2c(Cl)nsc12` was run?
Answer: The mutagenic call was “active; positive”.

Question: With `NCCO` as the compound, how does the mutagenic call (Test System: AMES SALMONELLA TYPHIMURIUM, Strain/Indicator: TA98, Metabolic Activation: HAMSTER, LIVER, S-9, AROCLOR 1254 (10%), Method: PREINCUBATION) read?
Answer: Its mutagenic call is “inactive; negative”.

Question: And the mutagenic call [9]?
Answer: Its mutagenic call is “inactive; negative”.

Question: What about the mutagenic call (Test System: AMES SALMONELLA TYPHIMURIUM, Strain/Indicator: TA98, Metabolic Activation: RAT LIVER S-9, PHENOBARBITAL AND BETA-NAPHTHOFLAVONE, Method: PREINCUBATION) of the same compound?
Answer: The mutagenic call was “inactive; negative”.

Question: What about the mutagenic call (Test System: AMES SALMONELLA TYPHIMURIUM, Strain/Indicator: TA98, Metabolic Activation: RAT, LIVER, S-9, AROCLOR 1254 (10%), Method: PREINCUBATION) of the same compound?
Answer: The mutagenic call was “inactive; negative”.

Question: And the mutagenic call (Test System: AMES SALMONELLA TYPHIMURIUM, Strain/Indicator: TA100, Metabolic Activation: HAMSTER, LIVER, S-9, AROCLOR 1254 (10%), Method: PREINCUBATION)?
Answer: The mutagenic call was “inactive; negative”.

Question: What about the mutagenic call [10] of the same compound?
Answer: The mutagenic call was “inactive; negative”.

Question: And the mutagenic call (Test System: AMES SALMONELLA TYPHIMURIUM, Strain/Indicator: TA100, Metabolic Activation: RAT LIVER S-9, PHENOBARBITAL AND BETA-NAPHTHOFLAVONE, Method: PREINCUBATION)?
Answer: Its mutagenic call is “inactive; negative”.

Question: What about the mutagenic call (Test System: AMES SALMONELLA TYPHIMURIUM, Strain/Indicator: TA100, Metabolic Activation: RAT, LIVER, S-9, AROCLOR 1254 (10%), Method: PREINCUBATION) of the same compound?
Answer: Its mutagenic call is “inactive; negative”.

Question: And the mutagenic call (Test System: AMES SALMONELLA TYPHIMURIUM, Strain/Indicator: TA1535, Metabolic Activation: HAMSTER, LIVER, S-9, AROCLOR 1254 (10%), Method: PREINCUBATION)?
Answer: The mutagenic call was “inactive; negative”.

Question: What about the mutagenic call (Test System: AMES SALMONELLA TYPHIMURIUM, Strain/Indicator: TA1535, Metabolic Activation: NONE, Method: PREINCUBATION) of the same compound?
Answer: The mutagenic call was “inactive; negative”.

Question: And the mutagenic call (Test System: AMES SALMONELLA TYPHIMURIUM, Strain/Indicator: TA1535, Metabolic Activation: RAT LIVER S-9, PHENOBARBITAL AND BETA-NAPHTHOFLAVONE, Method: PREINCUBATION)?
Answer: Its mutagenic call is “inactive; negative”.

Question: What about the mutagenic call (Test System: AMES SALMONELLA TYPHIMURIUM, Strain/Indicator: TA1535, Metabolic Activation: RAT, LIVER, S-9, AROCLOR 1254 (10%), Method: PREINCUBATION) of the same compound?
Answer: The mutagenic call was “inactive; negative”.

Question: And the mutagenic call (Test System: AMES SALMONELLA TYPHIMURIUM, Strain/Indicator: TA1537, Metabolic Activation: HAMSTER, LIVER, S-9, AROCLOR 1254 (10%), Method: PREINCUBATION)?
Answer: The mutagenic call was “inactive; negative”.

Question: And the mutagenic call (Test System: AMES SALMONELLA TYPHIMURIUM, Strain/Indicator: TA1537, Metabolic Activation: NONE, Method: PREINCUBATION)?
Answer: The mutagenic call was “inactive; negative”.

Question: And the mutagenic call (Test System: AMES SALMONELLA TYPHIMURIUM, Strain/Indicator: TA1537, Metabolic Activation: RAT LIVER S-9, PHENOBARBITAL AND BETA-NAPHTHOFLAVONE, Method: PREINCUBATION)?
Answer: The mutagenic call was “inactive; negative”.

Question: And the mutagenic call (Test System: AMES SALMONELLA TYPHIMURIUM, Strain/Indicator: TA1537, Metabolic Activation: RAT, LIVER, S-9, AROCLOR 1254 (10%), Method: PREINCUBATION)?
Answer: The mutagenic call was “inactive; negative”.

Question: What about the mutagenic call (Test System: AMES SALMONELLA TYPHIMURIUM, Strain/Indicator: TA1538, Metabolic Activation: NONE, Method: PREINCUBATION) of the same compound?
Answer: The mutagenic call was “inactive; negative”.

Question: And the mutagenic call (Test System: AMES SALMONELLA TYPHIMURIUM, Strain/Indicator: TA1538, Metabolic Activation: RAT LIVER S-9, PHENOBARBITAL AND BETA-NAPHTHOFLAVONE, Method: PREINCUBATION)?
Answer: Its mutagenic call is “inactive; negative”.

Question: What about the mutagenic call (Test System: E.COLI, Strain/Indicator: WP2UVRA, Metabolic Activation: NONE, Method: PREINCUBATION) of the same compound?
Answer: Its mutagenic call is “active; positive”.

Question: What about the mutagenic call (Test System: E.COLI, Strain/Indicator: WP2UVRA, Metabolic Activation: RAT LIVER S-9, PHENOBARBITAL AND BETA-NAPHTHOFLAVONE, Method: PREINCUBATION) of the same compound?
Answer: Its mutagenic call is “inactive; negative”.

Question: `CC(N)CCN` (stereo unspecified) was tested. Which mutagenic call [9] did it give?
Answer: Its mutagenic call is “inactive; negative”.

Question: And the mutagenic call (Test System: AMES SALMONELLA TYPHIMURIUM, Strain/Indicator: TA98, Metabolic Activation: RAT, LIVER, S-9, PCB, Method: PREINCUBATION)?
Answer: Its mutagenic call is “inactive; negative”.

Question: And the mutagenic call [10]?
Answer: Its mutagenic call is “inactive; negative”.

Question: And the mutagenic call (Test System: AMES SALMONELLA TYPHIMURIUM, Strain/Indicator: TA100, Metabolic Activation: RAT, LIVER, S-9, PCB, Method: PREINCUBATION)?
Answer: The mutagenic call was “inactive; negative”.

Question: How did the mutagenic call [1] turn out when `c1scc2c1-c1cscc1C1OC21` (stereo unspecified) was run?
Answer: The mutagenic call was “active; positive”.

Question: What about the mutagenic call [3] of the same compound?
Answer: The mutagenic call was “active; positive”.
